Results from ChEMBL document CHEMBL4387742, “Naturally occurring biflavonoids with amyloid β aggregation inhibitory activity for development of anti-Alzheimer agents” (Bioorg Med Chem Lett, 2019).
pIC50: −log10 of the molar value.

Key:
[1] = molecular target: T1, Amyloid-beta precursor protein (Homo sapiens, UniProt P05067); assay: Inhibition of human amyloid beta (1 to 40) assessed as reduction in aggregation measured after 24 hrs by ThT fluorescence assay
[2] = molecular target: T1, Amyloid-beta precursor protein; assay: Inhibition of amyloid beta (1 to 42) (unknown origin) assessed as reduction in aggregation at 50 uM by ThT fluorescence assay

T1 sequence (P05067 whole entry): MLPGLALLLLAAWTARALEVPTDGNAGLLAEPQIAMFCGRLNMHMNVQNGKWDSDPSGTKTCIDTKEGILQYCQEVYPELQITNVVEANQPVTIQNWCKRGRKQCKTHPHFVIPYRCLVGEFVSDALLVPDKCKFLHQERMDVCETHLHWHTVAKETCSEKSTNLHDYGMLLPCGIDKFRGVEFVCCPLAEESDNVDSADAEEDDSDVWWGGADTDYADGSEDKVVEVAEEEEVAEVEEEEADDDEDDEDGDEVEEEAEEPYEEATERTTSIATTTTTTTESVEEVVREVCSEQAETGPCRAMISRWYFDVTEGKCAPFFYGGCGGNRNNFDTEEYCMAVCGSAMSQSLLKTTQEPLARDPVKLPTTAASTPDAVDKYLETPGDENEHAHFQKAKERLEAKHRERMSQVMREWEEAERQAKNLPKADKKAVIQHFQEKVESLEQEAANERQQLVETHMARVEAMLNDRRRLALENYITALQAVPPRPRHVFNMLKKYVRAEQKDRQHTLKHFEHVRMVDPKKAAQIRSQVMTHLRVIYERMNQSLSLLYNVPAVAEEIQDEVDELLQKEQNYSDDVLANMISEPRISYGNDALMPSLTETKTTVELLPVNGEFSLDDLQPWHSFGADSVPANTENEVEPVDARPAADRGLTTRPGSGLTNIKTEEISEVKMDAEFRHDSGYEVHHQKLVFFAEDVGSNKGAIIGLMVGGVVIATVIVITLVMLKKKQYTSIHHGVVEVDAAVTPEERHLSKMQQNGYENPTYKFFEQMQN

Structure (SMILES)	pIC50 [1]	inhibition [2] [%]
COc1cc(O)c2c(=O)cc(-c3ccc(OC)c(-c4c(OC)cc(O)c5c(=O)cc(-c6ccc(O)cc6)oc45)c3)oc2c1	< 4.30	–
COc1ccc(-c2cc(=O)c3c(O)cc(O)c(-c4c(OC)cc5oc(-c6ccc(O)cc6)cc(=O)c5c4O)c3o2)cc1	4.80	–
COc1ccc(-c2cc(=O)c3c(O)cc(OC)c(-c4cc(-c5cc(=O)c6c(O)cc(OC)cc6o5)ccc4OC)c3o2)cc1	< 4.30	–
COc1cc2oc(-c3ccc(O)cc3)cc(=O)c2c(O)c1Oc1ccc(-c2cc(=O)c3c(O)cc(O)cc3o2)cc1	< 4.30	–
COc1ccc(-c2cc(=O)c3c(O)cc(O)c(-c4cc(-c5cc(=O)c6c(O)cc(O)cc6o5)ccc4O)c3o2)cc1 [PODOCARPUSFLAVONE A]	5.31	–
COc1cc(O)c2c(=O)cc(-c3ccc(O)cc3)oc2c1-c1cc(-c2cc(=O)c3c(O)cc(O)cc3o2)ccc1O [SOTETSUFLAVONE]	< 4.30	–
COc1ccc(-c2cc(=O)c3c(O)cc(OC)c(-c4cc(-c5cc(=O)c6c(O)cc(OC)cc6o5)ccc4O)c3o2)cc1 [HEVEAFLAVONE]	< 4.30	–
O=c1cc(-c2ccc(O)cc2)oc2cc(O)cc(O)c12 [APIGENIN]	< 4.30	–
COc1ccc(-c2cc(=O)c3c(O)cc(O)cc3o2)cc1-c1c(O)cc(O)c2c(=O)cc(-c3ccc(O)cc3)oc12 [BILOBETIN]	5.33	–
O=c1cc(-c2ccc(Oc3c(O)cc4oc(-c5ccc(O)cc5)cc(=O)c4c3O)cc2)oc2cc(O)cc(O)c12 [HINOKIFLAVONE]	5.02	–
COc1cc2oc(-c3ccc(O)cc3)cc(=O)c2c(O)c1-c1c(OC)cc(O)c2c(=O)cc(-c3ccc(O)cc3)oc12	4.48	–
COc1cc2oc(-c3ccc(O)cc3)cc(=O)c2c(O)c1-c1c(O)cc(O)c2c(=O)cc(-c3ccc(O)cc3)oc12	4.89	–
COc1ccc(-c2cc(=O)c3c(O)cc(OC)c(-c4cc(-c5cc(=O)c6c(O)cc(O)cc6o5)ccc4OC)c3o2)cc1 [KAYAFLAVONE]	< 4.30	–
COc1ccc(-c2cc(=O)c3c(O)cc(OC)c(-c4c(OC)cc5oc(-c6ccc(O)cc6)cc(=O)c5c4O)c3o2)cc1	< 4.30	–
COc1ccc(-c2cc(=O)c3c(O)cc(O)cc3o2)cc1-c1c(OC)cc(O)c2c(=O)cc(-c3ccc(O)cc3)oc12	< 4.30	–
COc1cc(O)c2c(=O)cc(-c3ccc(OC)c(-c4c(O)cc(O)c5c(=O)cc(-c6ccc(O)cc6)oc45)c3)oc2c1 [GINKGETIN]	4.88	–
COc1ccc(-c2cc(=O)c3c(O)cc(OC)c(-c4c(OC)cc(O)c5c(=O)cc(-c6ccc(OC)cc6)oc45)c3o2)cc1	< 4.30	–
COc1ccc(-c2cc(=O)c3c(O)c(Oc4ccc(-c5cc(=O)c6c(O)cc(O)cc6o5)cc4)c(O)cc3o2)cc1	< 4.30	–
COc1cc2oc(-c3ccc(O)cc3)cc(=O)c2c(O)c1-c1cc(-c2cc(=O)c3c(O)cc(O)cc3o2)ccc1O	4.67	–
COc1cc(O)c2c(=O)cc(-c3ccc(O)cc3)oc2c1-c1c(OC)cc(O)c2c(=O)cc(-c3ccc(O)cc3)oc12	4.76	–
COc1ccc(-c2cc(=O)c3c(O)cc(O)c(-c4cc(-c5cc(=O)c6c(O)cc(OC)cc6o5)ccc4OC)c3o2)cc1 [SCIADOPITISIN]	< 4.30	44
COc1ccc(-c2cc(=O)c3c(O)cc(O)c(-c4cc(-c5cc(=O)c6c(O)cc(O)cc6o5)ccc4OC)c3o2)cc1 [ISOGINKGETIN]	5.00	–
COc1ccc(-c2cc(=O)c3c(O)cc(OC)c(-c4c(OC)cc(O)c5c(=O)cc(-c6ccc(O)cc6)oc45)c3o2)cc1	4.34	–
O=c1cc(-c2ccc(O)c(-c3c(O)cc(O)c4c(=O)cc(-c5ccc(O)cc5)oc34)c2)oc2cc(O)cc(O)c12 [AMENTOFLAVONE]	5.32	–
COc1ccc(-c2cc(=O)c3c(O)cc(OC)c(-c4cc(-c5cc(=O)c6c(O)cc(O)cc6o5)ccc4O)c3o2)cc1 [7'',4'''-dimethylamentoflavone]	4.70	–
COc1ccc(-c2cc(=O)c3c(O)cc(O)cc3o2)cc1-c1c(O)cc2oc(-c3ccc(O)cc3)cc(=O)c2c1O	< 4.30	–
COc1ccc(-c2cc(=O)c3c(O)c(Oc4ccc(-c5cc(=O)c6c(O)cc(O)cc6o5)cc4)c(OC)cc3o2)cc1	< 4.30	–
COc1cc(O)c2c(=O)cc(-c3ccc(O)c(-c4c(O)cc(O)c5c(=O)cc(-c6ccc(O)cc6)oc45)c3)oc2c1 [SEQUOIAFLAVONE]	5.31	–
